Test results published in US20230113037A1 (Bayer Aktiengesellschaft, priority 2019, published 2023).
Where two headings read alike, the source gives them in different places.

Legend:
AHR [1] = molecular target: T1, AHR (Homo sapiens, UniProt P35869); test: In vitro assay 1: antagonism in human cell line (AHR transactivation, firefly luciferase reporter, kynurenic acid prestimulated); type: cell-based; settings: AHR Antagonism Human IC50 [M]
T1 construct: U87 MG glioblastoma cells (ATCC #HTB-14) endogenously expressing AHR; endogenous in cells; host or cells: U87 MG glioblastoma cells (ATCC #HTB-14)
T1 sequence (P35869 11-848): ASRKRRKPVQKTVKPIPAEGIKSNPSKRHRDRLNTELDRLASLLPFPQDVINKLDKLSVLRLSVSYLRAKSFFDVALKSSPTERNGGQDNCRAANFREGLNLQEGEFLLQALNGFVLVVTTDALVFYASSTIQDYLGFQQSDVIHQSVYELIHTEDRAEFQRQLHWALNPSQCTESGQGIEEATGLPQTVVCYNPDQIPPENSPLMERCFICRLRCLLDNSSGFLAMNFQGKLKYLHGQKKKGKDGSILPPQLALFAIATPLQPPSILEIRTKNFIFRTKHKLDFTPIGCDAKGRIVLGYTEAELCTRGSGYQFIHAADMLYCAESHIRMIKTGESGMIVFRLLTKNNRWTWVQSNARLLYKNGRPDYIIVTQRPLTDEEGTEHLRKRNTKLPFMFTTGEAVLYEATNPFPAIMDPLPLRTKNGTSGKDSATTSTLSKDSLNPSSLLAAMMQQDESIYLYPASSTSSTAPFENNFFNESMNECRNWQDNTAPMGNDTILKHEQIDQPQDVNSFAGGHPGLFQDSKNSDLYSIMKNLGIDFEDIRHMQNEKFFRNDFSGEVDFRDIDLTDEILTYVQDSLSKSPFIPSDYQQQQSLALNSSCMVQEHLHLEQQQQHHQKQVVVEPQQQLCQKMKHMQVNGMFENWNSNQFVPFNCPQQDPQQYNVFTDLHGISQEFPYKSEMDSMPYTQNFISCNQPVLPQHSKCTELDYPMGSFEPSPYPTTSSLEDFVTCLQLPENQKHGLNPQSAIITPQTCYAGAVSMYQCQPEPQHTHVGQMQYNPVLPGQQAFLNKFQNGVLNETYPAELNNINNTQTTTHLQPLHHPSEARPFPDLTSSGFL
How it was run: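 Antagonism is measured against kynurenic acid prestimulation in U87 MG glioblastoma cells carrying stable DRE-luciferase and Renilla reporters. Positive inhibition control: 150 μM kynurenic acid with 5 μM staurosporine. Values are normalized to controls; repeats are averaged or given as medians.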

AHR [2] = molecular target: T2, AHR (Mus musculus, UniProt P30561); test: In vitro assay 3: antagonism in mouse cell line (AHR transactivation, firefly luciferase reporter, kynurenic acid prestimulated); type: cell-based; settings: 200 μM kynurenic acid, 20 hours, read-out: AHR Antagonism Mouse IC50
T2 sequence (P30561 1-848 P471L/N533S/M589L): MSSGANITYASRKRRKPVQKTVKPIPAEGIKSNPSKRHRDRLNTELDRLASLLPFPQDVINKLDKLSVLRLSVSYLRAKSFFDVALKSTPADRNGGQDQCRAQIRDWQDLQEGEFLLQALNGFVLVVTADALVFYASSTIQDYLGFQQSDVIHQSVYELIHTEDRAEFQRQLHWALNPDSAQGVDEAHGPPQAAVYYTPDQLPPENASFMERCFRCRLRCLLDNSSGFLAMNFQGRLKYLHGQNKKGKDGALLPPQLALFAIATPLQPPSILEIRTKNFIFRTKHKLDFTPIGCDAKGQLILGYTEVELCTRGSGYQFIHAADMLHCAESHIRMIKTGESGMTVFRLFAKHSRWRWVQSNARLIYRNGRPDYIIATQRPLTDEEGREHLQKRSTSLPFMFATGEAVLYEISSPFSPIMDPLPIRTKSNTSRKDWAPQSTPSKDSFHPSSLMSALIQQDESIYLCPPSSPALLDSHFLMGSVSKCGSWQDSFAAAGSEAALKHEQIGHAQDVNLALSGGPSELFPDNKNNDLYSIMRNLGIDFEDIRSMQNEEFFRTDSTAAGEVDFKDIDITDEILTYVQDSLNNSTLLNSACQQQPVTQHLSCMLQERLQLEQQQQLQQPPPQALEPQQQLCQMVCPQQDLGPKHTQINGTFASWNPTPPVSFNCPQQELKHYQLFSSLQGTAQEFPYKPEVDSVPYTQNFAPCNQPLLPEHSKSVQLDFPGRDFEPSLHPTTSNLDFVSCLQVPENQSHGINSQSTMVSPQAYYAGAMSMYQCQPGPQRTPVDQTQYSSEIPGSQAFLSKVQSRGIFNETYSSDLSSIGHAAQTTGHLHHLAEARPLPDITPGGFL
How it was run: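 Luminescence from an AHR-dependent DRE-luciferase reporter, stably integrated in mouse cells, quantifies blockade of kynurenic acid-driven activation. Unstimulated cells mark maximal inhibition; normalization uses both control types, and multiply tested compounds carry mean or median values.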

[3] = Hepa 1c1c7 cells, firefly luciferase reporter

Compound | IC50 (AHR [1]) [M] | IC50 (AHR [2]; mouse Hepa 1c1c7 cells) [nM] | IC50 (AHR [1]; firefly luciferase reporter) [M] | IC50 (AHR [2]; [3]) [nM]
O=C1NCCCC[C@H]1Nc1nc2ccccc2c2nc(-c3ccncc3)nn12 [Example 126, (3R)-3-{[2-(pyridin-4-yl)[1,2,4]triazolo[1,5-c]quinazolin-5-yl]amino}azepan-2-one] | 1.3e-08 | 14.8 | – | –
COc1cccc(-c2nc3c4ccc(F)cc4nc(N[C@H]4CCCCNC4=O)n3n2)c1 [Example 150, (3S)-3-{[8-fluoro-2-(3-methoxyphenyl)[1,2,4]triazolo[1,5-c]quinazolin-5-yl]amino}azepan-2-one] | 1.97e-07 | 48.8 | – | –
Cc1cc(-c2nc3c4cccc(C(F)(F)F)c4nc(N[C@@H]4CCCCNC4=O)n3n2)n(C)n1 [Example 740, (3R)-3-{[2-(1,3-dimethyl-1H-pyrazol-5-yl)-7-(trifluoromethyl)[1,2,4]triazolo[1,5-c]quinazolin-5-yl]amino}azepan-2-one] | 1.22e-09 | 1.65 | – | –
COc1ccc(-c2nc3c4cccc(Br)c4nc(N[C@@H](C(N)=O)C(C)C)n3n2)cc1 [Example 556, N^2-[7-bromo-2-(4-methoxyphenyl)[1,2,4]triazolo[1,5-c]quinazolin-5-yl]-D-valinamide] | 4.03e-10 | 0.415 | – | –
O=C1NCCCC[C@H]1Nc1nc2ccccc2c2nc(-c3ccc(Cl)cc3OC(F)(F)F)nn12 [Example 517, (3R)-3-({2-[4-chloro-2-(trifluoromethoxy)phenyl][1,2,4]triazolo[1,5-c]quinazolin-5-yl}amino)azepan-2-one] | 1.47e-09 | 2.31 | – | –
COc1cccc(-c2nc3c4ccccc4nc(N[C@H](C)C(=O)NC4CCC4)n3n2)c1 [Example 109, N-cyclobutyl-N^2-[2-(3-methoxyphenyl)[1,2,4]triazolo[1,5-c]quinazolin-5-yl]-D-alaninamide] | 6.94e-09 | 4.15 | – | –
Cn1nccc1-c1nc2c3cccc(C(F)(F)F)c3nc(N[C@@H]3CCCCNC3=O)n2n1 [Example 808, (3R)-3-{[2-(1-methyl-1H-pyrazol-5-yl)-7-(trifluoromethyl)[1,2,4]triazolo[1,5-c]quinazolin-5-yl]amino}azepan-2-one] | – | – | 8.12e-10 | 1.16
CCOC(=O)[C@@H](C)Nc1nc2c(Br)cccc2c2nc(-c3cnn(C)c3)nn12 [Example 866, ethyl N-[7-bromo-2-(1-methyl-1H-pyrazol-4-yl)[1,2,4]triazolo[1,5-c]quinazolin-5-yl]-D-alaninate] | – | – | 5.75e-08 | 144
CCCNC(=O)[C@@H](C)Nc1nc2ccccc2c2nc(-c3ccncc3F)nn12 [Example 487, N^2-[2-(3-fluoropyridin-4-yl)[1,2,4]triazolo[1,5-c]quinazolin-5-yl]-N-propyl-D-alaninamide] | 3.26e-07 | 200 | – | –
Cc1ccccc1-c1nc2c3ccccc3nc(NC3CNCCNC3=O)n2n1 (single isomer, unassigned) [Example 47, 6-{[2-(2-methylphenyl)[1,2,4]triazolo[1,5-c]quinazolin-5-yl]amino}-1,4-diazepan-5-one] | 1.86e-08 | 27.9 | – | –
COc1cccc(-c2nc3c4cc(F)ccc4nc(NC4CCNC4=O)n3n2)c1 (single isomer, unassigned) [Example 187, 3-{[9-fluoro-2-(3-methoxyphenyl)[1,2,4]triazolo[1,5-c]quinazolin-5-yl]amino}pyrrolidin-2-one] | 6.04e-08 | 321 | – | –
COc1ccc(-c2nc3c4cccc(Br)c4nc(N[C@H](C)C(=O)N4C[C@@H]5C[C@H]4CO5)n3n2)cc1 [Example 914, (2R)-2-{[7-bromo-2-(4-methoxyphenyl)[1,2,4]triazolo[1,5-c]quinazolin-5-yl]amino}-1-[(1S,4S)-2-oxa-5-azabicyclo[2.2.1]heptan-5-yl]propan-1-one] | – | – | 8.96e-10 | 1.36
CCn1cc(-c2nc3c4cccc(Br)c4nc(N[C@@H]4CCCCNC4=O)n3n2)cn1 [Example 831, (3R)-3-{[7-bromo-2-(1-ethyl-1H-pyrazol-4-yl)[1,2,4]triazolo[1,5-c]quinazolin-5-yl]amino}azepan-2-one] | – | – | 8.88e-10 | 1.54
Cn1cc(-c2nc3c4cccc(C(F)(F)F)c4nc(N[C@H]4CCCCNC4=O)n3n2)cn1 [Example 584, (3S)-3-{[2-(1-methyl-1H-pyrazol-4-yl)-7-(trifluoromethyl)[1,2,4]triazolo[1,5-c]quinazolin-5-yl]amino}azepan-2-one] | 4.39e-08 | 153 | – | –

Now from value to compound:

IC50 (AHR [1]) [M] | IC50 (AHR [2]; mouse Hepa 1c1c7 cells) [nM] | IC50 (AHR [1]; firefly luciferase reporter) [M] | IC50 (AHR [2]; [3]) [nM] | Compound
8.01e-09 | 29.4 | – | – | COc1ccc(-c2nc3c4ccccc4nc(NC4CNCCNC4=O)n3n2)cc1 (single isomer, unassigned) [Example 36, 6-{[2-(4-methoxyphenyl)[1,2,4]triazolo[1,5-c]quinazolin-5-yl]amino}-1,4-diazepan-5-one]
> 2e-05 | 131 | – | – | O=C1NCCCC[C@@H]1Nc1nc2c(Br)cccc2c2nc(-c3ccc(Cl)cc3OC(F)(F)F)nn12 [Example 572, (3S)-3-({7-bromo-2-[4-chloro-2-(trifluoromethoxy)phenyl][1,2,4]triazolo[1,5-c]quinazolin-5-yl}amino)azepan-2-one]
6.16e-08 | 7.71 | – | – | Cc1cscc1-c1nc2c3ccccc3nc(N[C@H]3CCCCNC3=O)n2n1 [Example 539, (3S)-3-{[2-(4-methylthiophen-3-yl)[1,2,4]triazolo[1,5-c]quinazolin-5-yl]amino}azepan-2-one]
2.27e-08 | 11.3 | – | – | O=C1NCCCCCC1Nc1nc2ccccc2c2nc(-c3cccc(OC(F)(F)F)c3)nn12 (centres unmarked) [Example 447, 3-({2-[3-(trifluoromethoxy)phenyl][1,2,4]triazolo[1,5-c]quinazolin-5-yl}amino)azocan-2-one]
4.16e-08 | 119 | – | – | COc1ccc(-c2nc3c4ccc(C#N)cc4nc(N[C@@H]4CCCCNC4=O)n3n2)cc1 [Example 400, 2-(4-Methoxyphenyl)-5-{[(3R)-2-oxoazepan-3-yl]amino}[1,2,4]triazolo[1,5-c]quinazoline-8-carbonitrile]
> 2e-05 | 188 | – | – | CC[C@H](Nc1nc2ccccc2c2nc(-c3ccc(OC)cc3C(F)(F)F)nn12)C(N)=O [Example 514, (2S)-2-({2-[4-methoxy-2-(trifluoromethyl)phenyl][1,2,4]triazolo[1,5-c]quinazolin-5-yl}amino)butanamide]
6.25e-07 | 171 | – | – | CC[C@@H](Nc1nc2ccccc2c2nc(-c3cccc(S(C)(=O)=O)c3)nn12)C(N)=O [Example 378, (2R)-2-({2-[3-(methanesulfonyl)phenyl][1,2,4]triazolo[1,5-c]quinazolin-5-yl}amino)butanamide]
6.85e-09 | 2.46 | – | – | Cc1ncc(-c2nc3c4ccccc4nc(N[C@@H]4CCCCNC4=O)n3n2)cc1F [Example 641, (3R)-3-{[2-(5-fluoro-6-methylpyridin-3-yl)[1,2,4]triazolo[1,5-c]quinazolin-5-yl]amino}azepan-2-one]
